# B1: E-Cadherin: epithelial-cadherin used as cell culture dish coating (protein, UniProt P12830 155-882, looked up)
# Cadherin-1: DWVIPPISCPENEKGPFPKNLVQIKSNKDKEGKVFYSITGQGADTPPVGVFIIERETGWLKVTEPLDRERIATYTLFSHAVSSNGNAVEDPMEILITVTDQNDNKPEFTQEVFKGSVMEGALPGTSVMEVTATDADDDVNTYNAAIAYTILSQDPELPDKNMFTINRNTGVISVVTTGLDRESFPTYTLVVQAADLQGEGLSTTATAVITVTDTNDNPPIFNPTTYKGQVPENEANVVITTLKVTDADAPNTPAWEAVYTILNDDGGQFVVTTNPVNNDGILKTAKGLDFEAKQQYILHVAVTNVVPFEVSLTTSTATVTVDVLDVNEAPIFVPPEKRVEVSEDFGVGQEITSYTAQEPDTFMEQKITYRIWRDTANWLEINPDTGAISTRAELDREDFEHVKNSTYTALIIATDNGSPVATGTGTLLLILSDVNDNAPIPEPRTIFFCERNPKPQVINIIDADLPPNTSPFTAELTHGASANWTIQYNDPTQESIILKPKMALEVGDYKINLKLMDNQNKDQVTTLEVSVCDCEGAAGVCRKAQPVEAGLQIPAILGILGGILALLILILLLLLFLRRRAVVKEPLLPPEDDTRDNVYYYDEEGGGEEDQDFDLSQLHRGLDARPEVTRNDVAPTLMSVPRYLPRPANPDEIGNFIDENLKAADTDPTAPPYDSLLVFDYEGSGSEAASLSSLNSSESDKDQDYDYLNEWGNRFKKLADMYGGGEDD
# Experiments:
# [1] = test system: hES cells; experiment: Inhibition of survival assay on LN-521; format: cell-based, human; conditions: medium contained bFGF
# Experimental: (§1) The survival assay was performed as described for the cell adhesion assay above, except that the cells were left in the cell incubator for 24 hours. For inhibition of survival assay, the cells were kept in a medium with function blocking antibodies at the concentrations recommended by the manufacturer or pathway inhibitors at concentrations indicated in the text for 30 minutes, and then plated on the coated dishes. All the experiments were performed in quadruplicate.
# [2] = test system: PI3K/Akt and MEK1/Erk pathways; experiment: Western blot with antibodies to phospho-Akt / phospho-Erk; format: cell-based, human; conditions: cells collected one hour after plating on LN-521
# Experimental: HS 181 cells were trypsinized into single cell suspension as described above. For inhibition experiments, the cells were kept in O3 medium with blocking antibodies or pathway inhibitors for 30 minutes and then 450K cells were plated on 35 mm dishes precoated with the appropriate matrix coating. For other experiments, same number of cells was plated directly after trypsinization. In all cases the cells were allowed to spread for 1 hour at 37° C., 5% CO2. After two washings in ice-cold PBS, the plates with cells were snap frozen in liquid nitrogen and stored at −80° C. To prepare samples for western blots and ELISA, the plates were slowly thawed and kept on ice with 100-150 μl of lysis buffer (50 mM Tris-HCl, pH7.5, 150 mM NaCl, 0.5% deoxycholate, 0.5% SDS, 1% Triton X-100, 1% Igepal, Complete™ (Roche) and Phospho-Stop™ (Roche)) on top. Then, the cells were scraped, pipetted and sheared through a 27G ¾″ needle. After that, the cell pellets were clarified by centrifugation at 16,100 rcf for 15 minutes at 4° C. For western blots, 4-12% gradient gels were used for SDS electrophoresis and the proteins were transferred to PVDF membranes. The membrane was hybridized with the antibody of interest according to the manufacturer's instructions. […] For the densitometry analysis the films were scanned at 2,400 dpi and analyzed by the Chemilmager5500 program (1D-Multi Line densitometry mode). […]
# [3] = test system: hES cells; experiment: Cell survival assay, 24 hours (Example 2); format: cell-based, human; conditions: for survival 24 hours after plating: single cell suspension, O3 medium, absence of ROCK inhibitor; for survival after 24 hours: dissociated hES cells
# Experimental: as §1
# Pluripotent hES cells express α1, α5, β1, β2 and γ1 laminin chains. To compare the adhesion and clonal survival of hES cells plated from single cell suspension to different coating substrata, hES cells growing as monolayers on LN-511 or as clusters on a feeder layer were trypsinized into single cell suspension in O3 medium and plated on cell culture dishes coated with Matrigel, LN-111, LN-511, LN-521 or a mixture of LN-511 and LN-521, in the absence or presence of a ROCK inhibitor (Y-27632) and analyzed after 24 hours.
# [4] = biological target: Integrin α6β1 (Homo sapiens, UniProt P05556+P23229); conditions: cited from earlier work
# Chain of Integrin α6β1 (P23229 24-1130): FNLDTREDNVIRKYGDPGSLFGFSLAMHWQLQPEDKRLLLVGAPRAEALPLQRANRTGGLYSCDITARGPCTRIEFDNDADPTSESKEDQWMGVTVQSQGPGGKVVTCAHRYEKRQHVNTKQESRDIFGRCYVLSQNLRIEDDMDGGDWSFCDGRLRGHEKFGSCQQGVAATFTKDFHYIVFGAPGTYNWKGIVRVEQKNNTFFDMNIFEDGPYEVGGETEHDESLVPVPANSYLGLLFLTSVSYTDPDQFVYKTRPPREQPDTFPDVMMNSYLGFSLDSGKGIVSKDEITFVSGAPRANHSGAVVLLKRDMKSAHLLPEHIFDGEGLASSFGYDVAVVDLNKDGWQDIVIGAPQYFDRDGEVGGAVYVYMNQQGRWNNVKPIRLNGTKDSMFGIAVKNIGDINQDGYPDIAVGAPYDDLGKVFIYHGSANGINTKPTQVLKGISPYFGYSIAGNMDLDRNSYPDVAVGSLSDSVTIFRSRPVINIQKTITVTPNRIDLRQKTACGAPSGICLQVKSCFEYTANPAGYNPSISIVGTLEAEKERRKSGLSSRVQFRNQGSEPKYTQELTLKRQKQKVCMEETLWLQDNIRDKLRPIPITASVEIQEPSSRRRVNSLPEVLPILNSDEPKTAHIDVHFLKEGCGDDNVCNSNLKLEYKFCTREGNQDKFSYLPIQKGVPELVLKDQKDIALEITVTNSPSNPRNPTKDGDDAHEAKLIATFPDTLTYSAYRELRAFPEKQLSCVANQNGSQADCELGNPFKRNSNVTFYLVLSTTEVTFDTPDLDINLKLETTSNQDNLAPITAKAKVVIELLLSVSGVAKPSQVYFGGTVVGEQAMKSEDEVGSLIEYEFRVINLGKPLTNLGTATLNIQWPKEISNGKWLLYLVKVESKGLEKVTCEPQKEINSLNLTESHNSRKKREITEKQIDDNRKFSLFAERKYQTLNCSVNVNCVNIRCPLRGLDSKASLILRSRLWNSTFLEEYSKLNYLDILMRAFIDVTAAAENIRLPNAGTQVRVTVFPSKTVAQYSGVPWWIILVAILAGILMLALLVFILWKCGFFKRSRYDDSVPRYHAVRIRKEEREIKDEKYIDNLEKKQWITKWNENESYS
# Chain of Integrin α6β1 (P05556 21-798): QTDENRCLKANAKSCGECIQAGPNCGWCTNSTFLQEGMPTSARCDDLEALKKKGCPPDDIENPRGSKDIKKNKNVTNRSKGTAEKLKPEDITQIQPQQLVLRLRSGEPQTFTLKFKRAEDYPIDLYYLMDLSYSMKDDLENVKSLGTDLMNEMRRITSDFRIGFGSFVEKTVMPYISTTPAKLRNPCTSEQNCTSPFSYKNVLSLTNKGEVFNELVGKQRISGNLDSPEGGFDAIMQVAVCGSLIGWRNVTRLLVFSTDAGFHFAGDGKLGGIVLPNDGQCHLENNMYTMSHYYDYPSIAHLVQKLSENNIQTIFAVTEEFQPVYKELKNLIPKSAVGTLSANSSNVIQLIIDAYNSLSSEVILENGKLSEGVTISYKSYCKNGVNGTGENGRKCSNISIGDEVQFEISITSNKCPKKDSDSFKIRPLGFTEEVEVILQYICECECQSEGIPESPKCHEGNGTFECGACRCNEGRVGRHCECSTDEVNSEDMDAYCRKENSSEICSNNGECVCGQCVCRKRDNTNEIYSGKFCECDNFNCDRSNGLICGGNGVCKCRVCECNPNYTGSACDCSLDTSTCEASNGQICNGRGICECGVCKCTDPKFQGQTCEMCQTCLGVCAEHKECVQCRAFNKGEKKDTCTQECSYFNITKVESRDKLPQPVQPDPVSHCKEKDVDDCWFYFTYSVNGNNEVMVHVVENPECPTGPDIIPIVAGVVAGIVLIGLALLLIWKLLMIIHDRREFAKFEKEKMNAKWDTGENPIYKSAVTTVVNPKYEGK
# [5] = test system: human ES cells; conditions: teratomas after engraftment into SCID mice; cited from earlier work
# [6] = test system: mouse ES cells; conditions: without LIF or feeder cells; cited from earlier work
# [7] = test system: human ES cells; experiment: Cell adhesion assay, 1 hour (Example 1); format: cell-based; conditions: O3 medium without any additives, without Y-27632
# Experimental: (§2) Ninety-six-well tissue cell culture plates were coated overnight at 4° C. with sterile solutions of the ECM proteins mouse LN-111 (Invitrogen), human recombinant LN-511, and human recombinant LN-521, all at a concentration of 30 μg/ml (5 μg/cm^2). For control cells, BD Matrigel™ hESC qualified (BD Biosciences) was used according to the manufacturer's instructions.
# (§3) The assay was performed as described (Extracellular Matrix Protocols, 2000). Briefly, 96-well plates were coated by extracellular matrix proteins as described above and blocked by O3 medium containing bovine serum albumin. The ES cells were plated at a cell density of 600 cell/mm^2 upon extracellular matrix-coated plates and were left to adhere for either 1 hour or 1 day at the cell incubator. Non-adherent cells were washed away, and adherent cells were fixed for 20 min by 5% glutaraldehyde, stained by 0.1% Crystal Violet.
# [8] = test system: human embryonic stem cells; experiment: Survival of dissociated human embryonic stem cells one day after plating on precoated dishes; format: cell-based; conditions: single cell suspension, O3 medium, 30 Kcells/cm^2
# Excerpt: In other aspects, the present disclosure provides a new material, isolated laminin-521, which permits human embryonic stem cell survival after dissociation into single cell suspension. The stem cells were dissociated into single cell suspension by Trypsin-EDTA treatment, pelleted by centrifugation, resuspended into O3 medium, filtered through a 40 μm sieve, and plated at a density of 30 Kcells/cm^2 on cell culture dishes precoated by either isolated laminin-521, laminin-511, or Matrigel. After one day in culture, the cells plated on Matrigel died, as is known in the art.
# [9] = test system: hES cells; experiment: Cell adhesion assay, 1 hour (Example 2); format: cell-based, human; conditions: not shown
# Experimental: Tissue cell culture plates were coated overnight at 4° C. with sterile solutions of the ECM proteins, such as human recombinant LN-521, all at a concentration of 30 μg/ml (5 μg/cm^2). Control plates were coated with Matrigel according to the STEMCELL Technologies' instructions. Prior to use, dishes were pre-warmed in an incubator for one hour after which prewarmed O3 medium was added without additional washing of the dish. After applying a fresh LN-521 solution to a new dish, the remaining LN-521 solution could be used at least once more. All the adhesion, survival, and inhibition of survival experiments were carried out using fresh coating materials.
# Briefly, 96-well plates were coated by extracellular matrix proteins as described above and blocked by O3 medium containing bovine serum albumin. The ES cells were plated at cell density of 50,000 cells/cm^2 onto extracellular matrix-coated plates and left to adhere for 1 hour in a cell incubator. After that the plates were washed 3 times with the medium to remove the non-adherent cells, and then the adherent cells were fixed for 20 minutes by 5% glutaraldehyde, stained by 0.1% Crystal Violet. (Kebo Lab, Spanga, Sweden, http://www.kebolab.se). After one hour and 3 washes with water, Crystal Violet was extracted with 10% acetic acid and quantified by measuring optical density at 570 nm. All the experiments were performed in quadruplicate.
# [10] = test system: human ES cells; experiment: Cell adhesion / single cell survival 1 day after plating (Example 1); format: cell-based; conditions: for cells remaining attached / surviving 24 hours after plating: completely dissociated H5181 cells, O3 medium without any additives, no ROCK inhibitor
# Experimental: as §2, §3
# [11] = test system: phosphorylated myosin light chain (P-MLC); experiment: Western blot of phosphorylated myosin light chain; format: cell-based, human; conditions: one and six hours after plating
# Experimental: HS 181 cells were trypsinized into single cell suspension as described above. For inhibition experiments, the cells were kept in O3 medium with blocking antibodies or pathway inhibitors for 30 minutes and then 450K cells were plated on 35 mm dishes precoated with the appropriate matrix coating. For other experiments, same number of cells was plated directly after trypsinization. […] After two washings in ice-cold PBS, the plates with cells were snap frozen in liquid nitrogen and stored at −80° C. To prepare samples for western blots and ELISA, the plates were slowly thawed and kept on ice with 100-150 μl of lysis buffer (50 mM Tris-HCl, pH7.5, 150 mM NaCl, 0.5% deoxycholate, 0.5% SDS, 1% Triton X-100, 1% Igepal, Complete™ (Roche) and Phospho-Stop™ (Roche)) on top. Then, the cells were scraped, pipetted and sheared through a 27G ¾″ needle. After that, the cell pellets were clarified by centrifugation at 16,100 rcf for 15 minutes at 4° C. For western blots, 4-12% gradient gels were used for SDS electrophoresis and the proteins were transferred to PVDF membranes. The membrane was hybridized with the antibody of interest according to the manufacturer's instructions. Chemoluminescent HRP-substrate from Amersham Biosciences was used for visualization. For the densitometry analysis the films were scanned at 2,400 dpi and analyzed by the Chemilmager5500 program (1D-Multi Line densitometry mode). […]
# [12] = test system: hES cells; experiment: Clonal survival of individualized hES cells (Example 4); format: cell-based, human; conditions: mTeSR1 medium, 250 cells per cm^2, 5 days, alkaline phosphatase staining
# Experimental: hES cells were plated in mTeSR1 medium on different coatings at a density of 250 cells per cm^2 and monitored after 5 days in culture using an alkaline phosphatase staining kit.
# Next, combinations of laminin-521 and E-Cadherin were tested to determine whether the combinations could sustain clonal survival of the cells. Fixed amounts of laminin-521 were used for the cell culture dish coating in combination with titrated E-Cadherin.
# Additional tests were performed to test the effects of various modifications to the mTeSR1 medium. A mixture of E-Cadherin to laminin-521 in a ratio of about 1:10 w/w was used to coat the plates. […] Time-lapse photography of the cells confirmed that laminin-521/E-Cadherin coatings facilitated cell survival through proliferation of the single cells, not through the aggregation of different cells.
molecule,measurement,setting,value
COc1cccc(-c2cc(=O)c3ccccc3o2)c1N [PD 98059],hES cell survival 24 hours after plating on LN-521 with pathway inhibitor,[1],did not affect the survival that severely
same,efficacy of inhibitor treatment by western blot,[2],confirmed
"LN-121: human recombinant laminin with α1, β2 and γ1 chains from triple-transfected HEK293 cells",survival 24 hours after plating,[3],failed to survive
LN-511: human recombinant laminin-511 coating protein,binding affinity of integrin α6β1 compared with LN-111,[4],higher
same,pluripotency of human ES cells grown over 3 months,[5],maintain pluripotency
same,duration of self-renewal of mouse ES cells,[6],over 5 months
same,adhesion of human ES cells at 1 hour,[7],roughly the same
same,survival after one day in culture,[8],in most cases
same,spreading of the cells after one hour compared with Matrigel or LN-111,[9],clearly better
same,cells remaining attached / surviving 24 hours after plating,[10],at a less extent
same,survival after 24 hours,[3],very few
same,survival 24 hours after plating,[3],did so as single cells
same,phosphorylation of MLC compared with cells on Matrigel and LN-111,[11],even higher
"human recombinant LN-111: human recombinant laminin with α1, β1 and γ1 chains from triple-transfected HEK293 cells",survival 24 hours after plating,[3],failed to survive
"C[C@@H](N)[C@H]1CC[C@H](C(=O)Nc2ccncc2)CC1 [Y-27632, reference compound]",cells remaining attached after one day,"[10]; O3 medium treated with ROCK inhibitor Y-27632, 5 coatings",remained attached on all 5 coatings
same,survival 24 hours after plating in the presence of ROCK inhibitor,"[3]; Matrigel, LN-111, LN-511, LN-521 or mixture coatings",survived on all surfaces
"LN-111: mouse laminin-111 (Invitrogen), indicated as LN-111 if not otherwise stated",cells remaining attached / surviving 24 hours after plating,[10],almost no cells remained attached
same,survival after 24 hours,[3],almost no cells had survived
same,survival 24 hours after plating,[3],did not survive
B1,clonal survival of individualized hES cells,[12],Neither laminin-521 nor E-Cadherin alone permitted efficient clonal survival
